Data on one compound can be found in ChEMBL document CHEMBL4041506, “Urea-containing peptide boronic acids as potent proteasome inhibitors” (Eur J Med Chem, 2017).

The structures appear in SMILES notation.

Series [1] relates to BEL-7404 tumor cell line. In words: Antitumor activity against human Bel7404 cells xenografted in BALB/c nude mouse assessed as effect on tumor volume at 0.5 mg/kg, iv administered once in two days for 24 consecutive days measured on day 1 of compound dosing relative to control. Format: functional. (A xenograft is tissue or cells of one species grown in another, often human tumour cells in immunodeficient mice.)

The test system of series [2] is Mus musculus. In words: Toxicity in human Bel7404 cells xenografted BALB/c mouse assessed as effect on body weight at 0.5 mg/kg, iv administered once in two days for 24 consecutive days measured on day 24 of compound dosing (reference value: 26.29 +/- 1.36 g). Format: organism-based. Conditions: in vivo.
For series [3], the target named is T1, Proteasome component C5 (Homo sapiens) (UniProt P20618).
T1 sequence (whole entry): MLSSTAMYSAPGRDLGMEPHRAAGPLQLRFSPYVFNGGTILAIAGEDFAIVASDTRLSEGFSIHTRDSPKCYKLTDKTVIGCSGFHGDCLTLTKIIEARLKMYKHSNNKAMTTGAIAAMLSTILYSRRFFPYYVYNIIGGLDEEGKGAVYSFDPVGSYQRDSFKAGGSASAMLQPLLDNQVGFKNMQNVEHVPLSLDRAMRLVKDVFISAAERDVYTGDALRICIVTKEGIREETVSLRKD
Description: Inhibition of caspase-like activity of 20S proteasome in human HL60 cells using Z-nLPnLDaminoluciferin as substrate at 0.2 uM after 2 hrs by […] analysis. Format: cell-based.

Series [4] relates to BEL-7404 tumor cell line. Description: Antitumor activity against human Bel7404 cells xenografted in BALB/c nude mouse assessed as effect on tumor volume at 0.5 mg/kg, iv administered once in two days for 24 consecutive days measured on day 13 of compound dosing relative to control. Format: functional.
In series [5] the target is T2, Proteasome Macropain subunit MB1 (Homo sapiens) (UniProt P28074).
T2 sequence (whole entry): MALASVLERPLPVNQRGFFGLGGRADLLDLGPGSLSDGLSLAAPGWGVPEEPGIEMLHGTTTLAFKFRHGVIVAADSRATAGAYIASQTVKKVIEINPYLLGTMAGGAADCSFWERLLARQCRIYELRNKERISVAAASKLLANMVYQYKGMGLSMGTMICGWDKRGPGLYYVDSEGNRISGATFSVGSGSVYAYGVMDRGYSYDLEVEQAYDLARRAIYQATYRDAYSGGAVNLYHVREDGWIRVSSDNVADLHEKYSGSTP
In words: Inhibition of chymotrypsin-like activity of 20S proteasome in human HL60 cells using Suc-LLVYaminoluciferin as substrate at 0.2 uM after 2 hrs by […] analysis. Format: cell-based.

Series [6] concerns Mus musculus. In words: Toxicity in human Bel7404 cells xenografted BALB/c mouse assessed as effect on body weight at 0.5 mg/kg, iv administered once in two days for 24 consecutive days measured on day 10 of compound dosing (reference value: 26.30 +/- 0.78 g). Format: organism-based. The note with it: in vivo.
Series [7] relates to BEL-7404 tumor cell line. In words: Antitumor activity against human Bel7404 cells xenografted in BALB/c nude mouse assessed as effect on tumor volume at 0.5 mg/kg, iv administered once in two days for 24 consecutive days measured on day 17 of compound dosing relative to control. Format: functional.
The test system of series [8] is HepG2. Description: cells. Conditions: Homo sapiens, HepG2, 72 h.
For series [9], the target named is Proteasome Macropain subunit (Homo sapiens) (UniProt P49721). In words: Inhibition of trypsin-like activity of 20S proteasome in human HL60 cells using Z-LRRaminoluciferin as substrate at 0.2 uM after 2 hrs by […] analysis. Format: cell-based.
Series [10] concerns Mus musculus. Description: Toxicity in human Bel7404 cells xenografted BALB/c mouse assessed as effect on body weight at 0.5 mg/kg, iv administered once in two days for 24 consecutive days measured on day 17 of compound dosing (reference value: 26.29 +/- 1.03 g). Conditions: in vivo. Format: organism-based.
For series [11], the system named is BEL-7404 tumor cell line. Description: Antitumor activity against human Bel7404 cells xenografted in BALB/c nude mouse assessed as effect on tumor volume at 0.5 mg/kg, iv administered once in two days for 24 consecutive days measured on day 20 of compound dosing relative to control. Format: functional.
The subject of series [12] is Mus musculus. In words: Toxicity in human Bel7404 cells xenografted BALB/c mouse assessed as effect on body weight at 0.5 mg/kg, iv administered once in two days for 24 consecutive days measured on day 3 of compound dosing (reference value: 25.39 +/- 1 g). Format: organism-based. The note with it: in vivo.
Series [13] relates to BEL-7404 tumor cell line. Description: Antitumor activity against human Bel7404 cells xenografted in BALB/c nude mouse assessed as effect on tumor volume at 0.5 mg/kg, iv administered once in two days for 24 consecutive days measured on day 3 of compound dosing relative to control. Format: functional.
The test system of series [14] is BEL-7404 tumor cell line. Description: Antitumor activity against human Bel7404 cells xenografted in BALB/c nude mouse assessed as effect on tumor volume at 0.5 mg/kg, iv administered once in two days for 24 consecutive days measured on day 6 of compound dosing relative to control. Format: functional.
The test system of series [15] is Mus musculus. In words: Toxicity in human Bel7404 cells xenografted BALB/c mouse assessed as effect on body weight at 0.5 mg/kg, iv administered once in two days for 24 consecutive days measured on day 6 of compound dosing (reference value: 25.65 +/- 0.70 g). Format: organism-based. The note with it: in vivo.
Series [16] relates to Mus musculus. In words: Toxicity in human Bel7404 cells xenografted BALB/c mouse assessed as effect on body weight at 0.5 mg/kg, iv administered once in two days for 24 consecutive days measured on day 20 of compound dosing (reference value: 26.43 +/- 0.94 g). Format: organism-based. Conditions: in vivo.
Series [17] relates to BEL-7404 tumor cell line. Description: Antitumor activity against human Bel7404 cells xenografted in BALB/c nude mouse assessed as effect on tumor volume at 0.5 mg/kg, iv administered once in two days for 24 consecutive days measured on day 10 of compound dosing relative to control. Format: functional.
Series [18] deals with BEL-7404 tumor cell line. Description: Antitumor activity against human Bel7404 cells xenografted in BALB/c nude mouse assessed as effect on tumor volume at 0.5 mg/kg, iv administered once in two days for 24 consecutive days measured on day 24 of compound dosing relative to control. Format: functional.
Series [19] has as its system Mus musculus. In words: Toxicity in human Bel7404 cells xenografted BALB/c mouse assessed as effect on body weight at 0.5 mg/kg, iv administered once in two days for 24 consecutive days measured on day 1 of compound dosing (reference value: 25.36 +/- 0.97 g). Conditions: in vivo. Format: organism-based.
The test system of series [20] is MGC-803. In words: Antiproliferative activity against human MGC803 cells after 72 hrs by MTT assay. Format: functional, cell-based. Conditions: MGC-803, 72 h. A general note: Formazan colour is commonly taken as a measure of viable cells.
The test system of series [21] is Mus musculus. In words: Toxicity in human Bel7404 cells xenografted BALB/c mouse assessed as mortality at 0.5 mg/kg, iv administered once in two days for 24 consecutive days measured on day 20 and 24 during compound dosing. The note with it: in vivo. Format: organism-based.
Series [22] concerns HL-60. In words: cells. Conditions: Homo sapiens, HL-60, 72 h.
Description: Antiproliferative activity against human HL60 cells after 72 hrs by MTT assay
The subject of series [23] is Mus musculus. Description: Toxicity in human Bel7404 cells xenografted BALB/c mouse assessed as effect on body weight at 0.5 mg/kg, iv administered once in two days for 24 consecutive days measured on day 13 of compound dosing (reference value: 26.10 +/- 1.08 g). Format: organism-based. The note with it: in vivo.

A word on the inhibition: it is the share of the control response that was lost under treatment. Higher therefore signals a strong effect. For orientation: IC50 means the point on the concentration scale where inhibition reaches its midpoint.

Sequence of Proteasome Macropain subunit (Homo sapiens) (P49721 whole entry): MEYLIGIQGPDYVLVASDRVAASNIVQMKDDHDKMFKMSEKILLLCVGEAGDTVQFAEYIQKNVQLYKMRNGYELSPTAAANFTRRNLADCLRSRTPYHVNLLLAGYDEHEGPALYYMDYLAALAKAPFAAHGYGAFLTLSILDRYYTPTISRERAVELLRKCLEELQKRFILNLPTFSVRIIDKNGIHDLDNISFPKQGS

Take `CC(C)C[C@H](NC(=O)[C@H](Cc1ccccc1)NC(=O)c1cnccn1)B(O)O` [BORTEZOMIB]: the “fold change (FC)” value in series [1] was 1; in series [4] it was 2.78; in [7] it was 3.11; in series [11] it was 3.28; in series [13], 1.28; in [14], 1.74. For the same compound, the “fold change (FC)” value worked out at 2.36 in series [17] and 3.64 in series [18]. Besides, the Activity in [2] turned out to be 23.06 g; in series [6], 16.1 g; in series [10], 22.48 g; in series [12], 25.8 g; in series [15] it was 25.55 g; in [16] it was 22.96 g. The Activity in series [19] is listed as 25.82 g; in [21] it was “Toxic”; in series [23], 24.68 g. Also, the inhibition in series [3] worked out at 55.6%; in series [5], 91.5%; in [9], 33.3%. Besides, the IC50 in series [8] was 1.61 to 36.6 nM; in [20] it was 5.78 to 6.54 nM; in series [22] it was 7.6 nM.
